{"source": "paper PMC3074252", "about": "(Journal of medicinal chemistry, 2011)", "key": {"[1]": {"test_system": "PC12 cells expressing G93A SOD1-YFP", "assay_type": "cell-based"}, "[2]": {"experiment": "in vivo", "conditions": "Sprague-Dawley, rat, iv, 1 mg/kg"}, "[3]": {"test_system": "G85R SOD1", "experiment": "High content G85R-SOD1 aggregation assay", "assay_type": "cell-based"}, "[4]": {"conditions": "Sprague-Dawley rats, in PBS"}, "[5]": {"conditions": "mice, 50 mg/kg peritoneally, 1 h after injection"}, "[6]": {"test_system": "68 in vitro radioligand binding assays", "conditions": "10 μM, in duplicate, 68 assays"}}, "note": "Read-outs that look alike come from different tables or passages of the source.", "data": [{"smiles": "O=C1C(=O)N(C2CCCCC2)C(=O)N1C1CCCCC1", "note": "[Compound 51, 1,3-Dicyclohexylimidazolidine-2,4,5-trione]", "values": [{"measurement": "activity in cytotoxicity protection assay", "setting": "[1]", "result": "none was active"}]}, {"smiles": "O=C1CC(=O)N(C2CCCCC2)C(=O)N1", "note": "[Compound 2, 1-Cyclohexylpyrimidine-2,4,6(1H,3H,5H)-trione]", "values": [{"measurement": "activity in cytotoxicity protection assay", "setting": "[1]", "result": "no activity"}]}, {"smiles": "O=C1CC(=O)N(CCc2ccccc2)C(=O)N1CCc1ccccc1", "note": "[Compound 7, 1,3-Diphenethylpyrimidine-2,4,6(1H,3H,5H)-trione]", "values": [{"measurement": "clearance", "setting": "[2]", "result": 133, "unit": "mL/min/kg"}, {"measurement": "reduction in aggregates, fluorescence images", "setting": "[3]; cells treated with MG132 plus 10 μM compound", "result": "significant reduction in aggregates"}, {"measurement": "reduction in the number of aggregates of G85R SOD1", "setting": "[3]; dose dependence", "result": "concentration dependent"}, {"measurement": "AUC/Dose", "setting": "[4]; 1 mg/kg i.v.", "result": 126, "unit": "ng · h/mL/dose"}, {"measurement": "AUC/Dose", "setting": "[4]; 1 mg/kg p.o.", "result": 124, "unit": "ng · h/mL/dose"}, {"measurement": "blood level", "setting": "[5]", "result": 150, "unit": "µM"}, {"measurement": "brain level", "setting": "[5]", "result": 50, "unit": "µM"}, {"measurement": "inhibitory effect across profiling screen", "setting": "[6]", "result": "No significant inhibitory effect"}]}, {"smiles": "O=c1cc(Cl)n(CCc2ccccc2)c(=O)n1CCc1ccccc1", "note": "[Compound 46, 6-chloro-1,3-diphenethylpyrimidine-2,4(1H,3H)-dione]", "values": [{"measurement": "activity in cytotoxicity protection assay", "setting": "[1]", "result": "inactive"}]}, {"smiles": "O=C1CCC(=O)N(CCc2ccccc2)C(=O)N1CCc1ccccc1", "note": "[Compound 52, 1,3-Diphenethyl-1,3-diazepane-2,4,7-trione]", "values": [{"measurement": "activity in cytotoxicity protection assay", "setting": "[1]", "result": "none was active"}]}, {"smiles": "COc1cc(=O)n(CCc2ccccc2)c(=O)n1CCc1ccccc1", "note": "[Compound 47, 6-methoxy-1,3-diphenethylpyrimidine-2,4(1H,3H)-dione]", "values": [{"measurement": "activity in cytotoxicity protection assay", "setting": "[1]", "result": "inactive"}]}, {"smiles": "O=C1CC(=O)N(CCN2CCOCC2)C(=O)N1CCc1ccc(F)cc1", "note": "[Compound 34, 1-(4-Fluorophenethyl)-3-(2-morpholinoethyl)pyrimidine-2,4,6(1H,3H,5H)-trione]", "values": [{"measurement": "activity in cytotoxicity protection assay", "setting": "[1]", "result": "inactive"}]}, {"smiles": "CCCCN1C(=O)CC(=O)NC1=O", "note": "[Compound 1, 1-Butylpyrimidine-2,4,6(1H,3H,5H)-trione]", "values": [{"measurement": "activity in cytotoxicity protection assay", "setting": "[1]", "result": "no activity"}]}, {"smiles": "O=C1C(=O)N(CCc2ccccc2)C(=O)N1CCc1ccccc1", "note": "[Compound 49, 1,3-Diphenethylimidazolidine-2,4,5-trione]", "values": [{"measurement": "activity in cytotoxicity protection assay", "setting": "[1]", "result": "none was active"}]}]}
